For series [1], the system named is Taxol-resistant HCT-8 cells (HCT-8T). Description: MTT cytotoxicity assay on Taxol-resistant HCT-8 cells. In kind it is cell-based. The following applies: 50 nM, 22 bp (FIG. 5F). The protocol:
(§1) A2780, Taxol-resistant A2780, HCT-8, Taxol-resistant HCT-8 and Taxol-resistant A549 cell lines were cultured in RPMI Medium 1640 medium containing 10% FBS and 1% penicillin/streptomycin. HepG2 and MCF-7 cell lines were cultured in Minimum Essential medium containing 10% FBS and 1% penicillin/streptomycin. All cell lines above were cultured at humidified atmosphere containing 5% CO2 at 37° C.
(§2) In the cytotoxicity assay, exponentially growing cells of each cancer cell line were plated in 96-well microplate at a density of 5000 cells per well in 100 μL of culture medium and allowed to adhere for 24 h before treatment. Serial concentrations of RNA molecules obtained in Example 1 and 2 in a mixture containing a gene delivery carrier, i.e. Lipofectamine™ RNAiMAX Transfection Reagent (Thermo Fisher Scientific, U.S.A.) were then added to the cells. After treated for 48 h, MTT solution (50 μL per well, 1 mg/mL solution) was added to each well and incubated for 4 h at 37° C. Subsequently, 200 μL dimethyl sulfoxide (DMSO) were added and the optical densities of the resulting solutions were calorimetrically determined at 570 nm using a SpectraMax 190 microplate reader (Molecular Devices, Sunnyvale, Calif., U.S.A). Dose-response curves were obtained, and the IC50 values were calculated by GraphPad Prism 5 (GraphPad, La Jolla, Calif., USA). Each experiment was carried out for three times. IC50 results were expressed as means±standard deviation.
Background: Tetrazolium assays rely on reduction of a dye to a coloured formazan, in cell work by metabolically active cells.

The test system of series [2] is HCT-8 cells. Description: MTT cytotoxicity assay on HCT-8 cells. The following applies: for dose dependence of growth and proliferation inhibition: 6.25-100 nM (FIG. 6G, 6H); for IC50: 48 h, MTT. The format is cell-based. The protocol: as §1, §2
In series [3] the test system is A2780 cells tumor xenografts. Description: In vivo antitumor effect, A2780 xenograft in nude mice. Further details: species or system BALB/c nude mice. Conditions: 2.4 mg/kg with 1% atelocollagen, tumor-adjacent injection once a week; for inhibition of tumor growth (ratio of tumor volume): 28 days (FIG. 7A); for body weight (ratio of weight changes): 28 days (FIG. 7B). How it is done: Animal model having xenograft cancer was set. Female BALB/c nude mice (6-8-week old) were purchased from Shanghai SLAC Laboratory Animal Co., Ltd. and maintained at 25° C. with free access to food and water in a special pathogen-free laboratory of the animal environment facilities. The animal experiments were performed in compliance with institutional animal care guidelines and according to committee-approved protocol. To generate tumor xenografts, A2780 cells (4.0×10^6) were injected subcutaneously in 100 μL of 1640 medium through a 27-gauge needle into the armpit of 8-week-old BALB/c nude mice. After 4-5 weeks after tumors had reached 60-70 mm^3, the tumor-bearing nude mice were treated with synthesized tRF with atelocollagen (Koken Co., Ltd., Tokyo, Japan). The concentration of atelocollagen was 1%, and tumor-adjacent injection was performed by one dose of HC11 or HC30 (RNA molecule of SEQ ID NO: 1 or SEQ ID NO: 9) (GenePharma Co., Ltd., Shanghai, China) at concentration of 2.4 mg/kg with atelocollagen once a week. A control group was set up in which vehicle was administered to the mice. A Taxol group for administering 1 mg/kg Taxol to the mice was also set as a comparison. The entire treatment lasted for 28 days.
Tumor diameters were measured at maximum length and maximum width with digital calipers. And the tumor volume was calculated by the formula: volume=(width)^2×length/2. The data were statistically analyzed using GraphPad Prism 5 (GraphPad, La Jolla, Calif., USA). […] In other words, the RNA molecules of the present invention are effective in treating cancer cells both in vivo and in vitro.

Series [4] concerns A2780 cells. The experiment in a line: MTT cytotoxicity assay on A2780 cells. In kind it is cell-based, human. The following applies: for IC50 / inhibition of growth and proliferation (cell viability): 48 h; for IC50: MTT; for inhibition of growth and proliferation (cell viability): 25 nM tRNA, RNAiMAX transfection, A2780 ovarian cancer cells (FIG. 3). The protocol: as §1, §2
Series [5] has as its system Taxol-resistant A549T cells. Description: MTT cytotoxicity assay on Taxol-resistant A549 cells. In kind it is cell-based, human. The protocol:
as §1
as §2, with “Each experiment was carried out for three times.” left out

For series [6], the system named is Taxol-resistant A2780T cells. Description: MTT cytotoxicity assay on Taxol-resistant A2780 cells. In kind it is cell-based, human. The protocol:
as §1
as §2, with “Each experiment was carried out for three times.” left out

Series [7] relates to HepG2 cells. Description: MTT cytotoxicity assay on HepG2 cells. The format is cell-based, human. The following applies: 25 nM tRNA, 48 h, RNAiMAX transfection, HepG2 liver cancer cells (FIG. 3). How it is done: as §1, §2
The subject of series [8] is MCF-7 cells. Description: MTT cytotoxicity assay on MCF-7 cells. The format is cell-based, human. Conditions: 25 nM tRNA, 48 h, RNAiMAX transfection, MCF-7 breast cancer cells (FIG. 3). How it is done:
as §1, §2

These results are taken from patent publication US11149271B2, “Method and pharmaceutical composition for treating cancer” (Macau University of Science and Technology, priority 2018, dated 2021).

Turning to “HC36: double-stranded RNA, sense SEQ ID NO: 29, antisense SEQ ID NO: 129, 22 bp, 5′-t of tRNA^Asn(GUU) (sense CCUCAGUAGCUCAGUGGUAGAG; antisense CUCUACCACUGAGCUACUGAGG; RNA, backbone and methylation of C not given here; synthetic double-stranded RNA)”, the “cytotoxic effect (cell viability)” value in series [1] is recorded as “useful in treating cancer which is resistant against Taxol”. In series [2], the “dose dependence of growth and proliferation inhibition” value is “dose-dependent effect”; 8.2 nM corresponded to half-maximal inhibition (IC50).

Consider “HC11: double-stranded RNA, sense SEQ ID NO: 1, antisense SEQ ID NO: 101, 22 bp, 5′-t of tRNA^His(GUG) (sense GCGGACGUAGCCAAGUGGUCCA; antisense UGGACCACUUGGCUACGUCCGC; RNA, backbone and methylation of C not given here; synthetic double-stranded RNA)”, for which the “inhibition of tumor growth (ratio of tumor volume)” value in series [3] is on record as “effective in inhibiting the growth of the tumor”. For the same molecule, the “body weight (ratio of weight changes)” value in series [3] was “maintaining a relative constant body weight”. Also, the “dose dependence of growth and proliferation inhibition” value in series [4] (A2780 cells, 6.25-100 nM (FIG. 6A)) is on record as “dose-dependent effect”; in series [5] (A549T cells, 6.25-200 nM (FIG. 6E)), “dose-dependent effect”; in series [6] (A2780T cells, 6.25-200 nM (FIG. 6C)) it was “dose-dependent effect”. Also, the IC50 worked out at 31 nM in series [4] (A2780 cells); 87.3 nM in series [5] (Taxol-resistant A549T cells, 48 h, MTT); 32.3 nM in series [6] (Taxol-resistant A2780T cells, 48 h, MTT).

For “HC39: double-stranded RNA, sense SEQ ID NO: 35, antisense SEQ ID NO: 135, 22 bp, 3′-t of tRNA^Met(CAU) (sense GGUUCAAAUCCCGUCUCCGCAA; antisense UUGCGGAGACGGGAUUUGAACC; RNA, backbone and methylation of C not given here; synthetic double-stranded RNA)”, in series [1], the “cytotoxic effect (cell viability)” value was “useful in treating cancer which is resistant against Taxol”.

Regarding “HC34: double-stranded RNA, sense SEQ ID NO: 25, antisense SEQ ID NO: 125, 22 bp, 5′-t of tRNA^Cys(GCA) (sense GGCGACAUAGCCAAGUGGUAAG; antisense CUUACCACUUGGCUAUGUCGCC; RNA, backbone and methylation of C not given here; synthetic double-stranded RNA)”, the “cytotoxic effect (cell viability)” value in series [1] was “useful in treating cancer which is resistant against Taxol”.

Regarding “HC30: double-stranded RNA, sense SEQ ID NO: 9, antisense SEQ ID NO: 109, 22 bp, 5′-t of tRNA^Trp(CCA) (sense GCGCUCUUAGUUCAGUGCGGUA; antisense UACCGCACUGAACUAAGAGCGC; RNA, backbone and methylation of C not given here; synthetic double-stranded RNA)”, in series [3], the “inhibition of tumor growth (ratio of tumor volume)” value is recorded as “effective in inhibiting the growth of the tumor” and the “body weight (ratio of weight changes)” value was “maintaining a relative constant body weight”.

For the molecule “HC37: double-stranded RNA, sense SEQ ID NO: 31, antisense SEQ ID NO: 131, 22 bp, 3′-t of tRNA^Asn(GUU) (sense GGUUCAAAUCCUAUUUGAGGAG; antisense CUCCUCAAAUAGGAUUUGAACC; RNA, backbone and methylation of C not given here; synthetic double-stranded RNA)”, the “cytotoxic effect (cell viability)” value in series [1] is recorded as “useful in treating cancer which is resistant against Taxol”. For the same molecule, in series [2], the “dose dependence of growth and proliferation inhibition” value is “dose-dependent effect”; the IC50 is 9.3 nM.

With “HC18: double-stranded RNA, sense SEQ ID NO: 13, antisense SEQ ID NO: 113, 22 bp, 5′-t of tRNA^Leu(CAA) (sense GCCUUGAUGGUGAAAUGGUAGA; antisense UCUACCAUUUCACCAUCAAGGC; RNA, backbone and methylation of C not given here; synthetic double-stranded RNA)”, the “cytotoxic effect (cell viability)” value in series [1] is reported as “useful in treating cancer which is resistant against Taxol”.

B1: tRNA^His(GUG): tRNA isolated from Taxus chinensis (Pilger) Rehd. var. mairei, 78 mer (nucleic acid)
chain: GCGGACGUAGCCAAGUGGUCCAAAGGCAGUGGAUUGUGAAUCCACCACGCGCGGGUUCAAUCCCCGUCGUUCGCCCCA
modifications: expressed or natural sequence
notes: tRNA isolated from Taxus chinensis (Pilger) Rehd. var. mairei, 78 mer
As for B1, the “inhibition of growth and proliferation (cell viability)” value (“inhibition of growth and proliferation” below) in series [4] is “capable of inhibiting the growth and proliferation”; in series [7], “capable of inhibiting the growth and proliferation”; in series [8] it was “capable of inhibiting the growth and proliferation”.

B2: tRNA^Arg(ACG): tRNA isolated from Taxus chinensis (Pilger) Rehd. var. mairei, 77 mer (nucleic acid)
chain: GGGCCUGUAGCUCAGAGGAUUAGAGCACGUGGUUGCGAACCACGGUGUCGGGGGUUCGAAUCCCUCCUCGCCCACCA
modifications: expressed or natural sequence
notes: tRNA isolated from Taxus chinensis (Pilger) Rehd. var. mairei, 77 mer
With B2, the “inhibition of growth and proliferation” value in series [4] was “capable of inhibiting the growth and proliferation”; in series [7], “capable of inhibiting the growth and proliferation”; in series [8], “capable of inhibiting the growth and proliferation”.

B3: tRNA^Glu(UUC): tRNA isolated from Taxus chinensis (Pilger) Rehd. var. mairei, 76 mer (nucleic acid)
chain: GCCCCUAUCGUCUAGUGGCCCAGGACAUCUCUCUUUCAAGGAGGCAACGGGGAUUCGAUUUCCCCUAGGGGUACCA
modifications: expressed or natural sequence
notes: tRNA isolated from Taxus chinensis (Pilger) Rehd. var. mairei, 76 mer
Take B3: the “inhibition of growth and proliferation” value in series [4] is “capable of inhibiting the growth and proliferation”; in series [7], “capable of inhibiting the growth and proliferation”; in series [8], “capable of inhibiting the growth and proliferation”.

B4: tRNA^Trp(CCA): tRNA isolated from Taxus chinensis (Pilger) Rehd. var. mairei, 75 mer (nucleic acid)
chain: GCGCUCUUAGUUCAGUGCGGUAGAACGCAGGUCUCCAAAACCUGAUGCCGUAGGUUCAAAUCCUACAGAGCGCCA
modifications: expressed or natural sequence
notes: tRNA isolated from Taxus chinensis (Pilger) Rehd. var. mairei, 75 mer
For the molecule B4, the “inhibition of growth and proliferation” value in series [4] was “capable of inhibiting the growth and proliferation”; in series [7], “capable of inhibiting the growth and proliferation”; in series [8] it was “capable of inhibiting the growth and proliferation”. Also, the IC50 in series [4] (A2780 cells) was ~14.3 nM.

B5: tRNA^Leu(CAA): tRNA isolated from Taxus chinensis (Pilger) Rehd. var. mairei, 84 mer (nucleic acid)
chain: GCCUUGAUGGUGAAAUGGUAGACACGCGAGACUCAAAAUCUCGUGCUAAACAGCGUGGAGGUUCGAAUCCUCUUCAAGGCACCA
modifications: expressed or natural sequence
notes: tRNA isolated from Taxus chinensis (Pilger) Rehd. var. mairei, 84 mer
In the case of B5, the “inhibition of growth and proliferation” value in series [4] was “capable of inhibiting the growth and proliferation”; in series [7] it was “capable of inhibiting the growth and proliferation”; in series [8], “capable of inhibiting the growth and proliferation”.

As usually defined, the IC50 is the concentration needed to halve the response being measured. Lower therefore signals greater potency.
